Data set [1] relates to Leishmania donovani. Briefly: Antileishmanial activity against Leishmania donovani axenic amastigotes after 72 hrs by CellTiter reagent based assay. Format: functional, organism-based.
The subject of data set [2] is Leishmania donovani. Put plainly: Antileishmanial activity against Leishmania donovani axenic amastigotes infected in mouse J774 cells after 72 hrs by Draq5 staining based assay. Type of data set: functional, organism-based. The settings on record: J774, 72 h.
Data set [3] relates to J774.A1. Put plainly: Cytotoxicity against mouse J774.A1 cells after 72 hrs by MTS assay. Format: cell-based. The settings on record: J774.A1, 72 h.
A short description of data set [4]: Kinetic solubility of the compound in pH 7.4 PBS buffer. Type of data set: physicochemical. The settings on record: read-out: Kinetic_solubility.

Here are results for 17 compounds from ChEMBL document CHEMBL4118092, “Synthesis and Activity of a New Series of Antileishmanial Agents” (ACS Med Chem Lett, 2017).

For `COCCCNc1cc(-n2nc(C)c3c2CCCC3=O)ccc1C(N)=O`, the half-maximal inhibitory concentration (IC50) in data set [1] was greater than 25 µM; in data set [2], greater than 10 µM; in data set [3], greater than 50 µM.
With `COCCCNc1cc(-n2nc(C)c3c2CC(C)(C)CC3=O)ccc1C(N)=O`, the 50% inhibitory concentration (IC50) in data set [1] amounted to 0.65 µM; in data set [2], 0.88 µM; in data set [3], 3.52 µM.
As to `CC1(C)CC(=O)c2c(C(F)(F)F)nn(-c3ccc(C(N)=O)c(N[C@H]4CC[C@H](O)CC4)c3)c2C1` [SNX-2112], the values for the half-maximal inhibitory concentration (IC50) in data set [1], in data set [2] and in data set [3] were 0.42 µM, 0.61 µM and less than 0.06 µM, respectively.
The like results for `COCCCNc1cc(-n2nc(C)c3c2CNCC3=O)ccc1C(N)=O` were, in that order, 3.9 µM, greater than 10 µM and greater than 50 µM.
With `Cc1nn(-c2ccc3c(N)ncnc3c2)c2c1C(=O)CC(C)(C)C2`, the values for the IC50 in data set [1], in data set [2] and in data set [3] were 2.42 µM, 1.33 µM and greater than 50 µM, respectively.
Consider `CCC(=O)N1CC(=O)c2c(C)nn(-c3ccc(C(N)=O)c(NCCCOC)c3)c2C1`, for which the IC50 in data set [1] is 6.43 µM; in data set [2], 3.54 µM; in data set [3], greater than 50 µM.
For `COCCCNc1cc(-n2nc(C)c3c2CN(C(=O)c2ccc(C)cc2)CC3=O)ccc1C(N)=O`, the IC50 is 2.6 µM in data set [1], 1.75 µM in data set [2] and 26.3 µM in data set [3].
As for `CCCCCCCCCCCCCCCCOP(=O)([O-])OCC[N+](C)(C)C` [MILTEFOSINE], the half-maximal inhibitory concentration (IC50) in data set [1] was 3.26 µM; in data set [2] it was 1.43 µM; in data set [3], greater than 50 µM.
Take `COCCCNc1cc(-n2nc(C)c3c2CN(C(=O)C2CCCC2)CC3=O)ccc1C(N)=O`: the IC50 in data set [1] was 2.99 µM; in data set [2], 1.52 µM; in data set [3] it was greater than 50 µM.
In the case of `COCCCNc1cc(-n2nc(C)c3c2CN(C(C)=O)CC3=O)ccc1C(N)=O`, the solubility kinetic in data set [4] is greater than 490 µM. Also, the 50% inhibitory concentration (IC50) in data set [1] is 13.9 µM; in data set [2], 1.06 µM; in data set [3] it was greater than 50 µM.
As for `COCCCNc1cc(-n2nc(C)c3c2CN(C(N)=O)CC3=O)ccc1C(N)=O`, the IC50 is greater than 20 µM in data set [1], greater than 10 µM in data set [2] and greater than 50 µM in data set [3].
Turning to `COCCCNc1cc(-n2nc(C)c3c2CN(Cc2ccccc2)CC3=O)ccc1C(N)=O`, the figures for the 50% inhibitory concentration (IC50) in data set [1], in data set [2] and in data set [3] were 2.29 µM, 6.33 µM and greater than 50 µM, respectively.
On to `C[C@@H]1C[C@H]2O[C@@H]2/C=C\C=C\C(=O)Cc2c(Cl)c(O)cc(O)c2C(=O)O1` [RADICICOL], for which the results for the IC50 in data set [1], in data set [2] and in data set [3] were 0.62 µM, 0.29 µM and 2.35 µM, respectively.
Regarding `COCCCNc1cc(-n2nc(C)c3c2CN(C(=O)C(C)C)CC3=O)ccc1C(N)=O`, the IC50 in data set [1] is 1.9 µM; in data set [2] it was 3.54 µM; in data set [3], 37.3 µM.
On to `COCCCNc1cc(-n2nc(C)c3c2CN(C(=O)NCc2ccccc2)CC3=O)ccc1C(N)=O`, for which the figures for the IC50 in data set [1], in data set [2] and in data set [3] were greater than 20 µM, greater than 10 µM and greater than 50 µM, respectively.
In the case of `COCCCNc1cc(-n2nc(C)c3c2CN(S(C)(=O)=O)CC3=O)ccc1C(N)=O`, the IC50 in data set [1] was greater than 20 µM; in data set [2] it was 5.38 µM; in data set [3] it was 25.5 µM.
For `COCCCNc1cc(-n2nc(C)c3c2CN(C(=O)COC)CC3=O)ccc1C(N)=O`, the figures for the IC50 in data set [1], in data set [2] and in data set [3] were 4.48 µM, 3.58 µM and greater than 50 µM, respectively.
